#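 Results reflect a 48-hour exposure of cells in 96-well plates to compound at five concentrations. At the TGI there is no net growth.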
# Legend:
# Experiment in all cases: NCI-60 cell line screen, 48 h
# [1] = test system: MDA-N
# [2] = test system: NCI-H460 lung
# [3] = test system: MCF7 breast
# [4] = test system: HL-60(TB) leukemia
# [5] = test system: PC-3 prostate
# [6] = test system: KM12 colon
# [7] = test system: SN12C renal
# [8] = test system: UACC-62 melanoma
# [9] = test system: IGROV1 ovarian
# [10] = test system: A498 renal
# [11] = test system: OVCAR-4 ovarian
# [12] = test system: 786-0 renal
# [13] = test system: MOLT-4 leukemia
# [14] = test system: MDA-MB-231 breast
# [15] = test system: A549 NSCLC
# [16] = test system: LOX IMVI melanoma
# [17] = test system: DU-145 prostate
# [18] = test system: SK-MEL-5 melanoma
# [19] = test system: OVCAR-3 ovarian
# [20] = test system: MALME-3M melanoma
# [21] = test system: UACC-257 melanoma
# [22] = test system: HT29 colon
# [23] = test system: HCC-2998 colon
# [24] = test system: OVCAR-8 ovarian
# [25] = test system: NCI-H522 lung
# [26] = test system: UO-31 renal
# [27] = test system: T-47D breast
# [28] = test system: HCT-15 colon
# [29] = test system: CCRF-CEM leukemia
# [30] = test system: TK-10 renal
# [31] = test system: M14 melanoma
# [32] = test system: EKVX NSCLC
# [33] = test system: CAKI-1 renal
# [34] = test system: U251 CNS
# [35] = test system: NCI-H23 lung
# [36] = test system: HOP-62 NSCLC
# [37] = test system: ACHN renal
# [38] = test system: OVCAR-5 ovarian
# [39] = test system: SK-MEL-2 melanoma
# [40] = test system: K-562 leukemia
# [41] = test system: NCI/ADR-RES ovarian
# [42] = test system: SW-620 colon
# [43] = test system: SF-295 CNS
# [44] = test system: RXF 393 renal
# [45] = test system: HCT-116 colon
# [46] = test system: MDA-MB-435
# [47] = test system: BT-549 breast
# [48] = test system: RPMI-8226 leukemia
# [49] = test system: COLO 205 colon
# [50] = test system: SR leukemia
# [51] = test system: SF-539 CNS
# [52] = test system: SK-OV-3 ovarian
# [53] = test system: SK-MEL-28 melanoma
# [54] = test system: SNB-19 CNS
# [55] = test system: HS 578T breast
# [56] = test system: SF-268 CNS
# [57] = test system: NCI-H226 lung
# [58] = test system: SNB-75 CNS
smiles,measurement,setting,value
CCCCNC(=O)c1cc(S(=O)(=O)n2cc[nH]c2=O)c(SC)cc1Cl,TGI,[1],> 100 µM
same,TGI,[2],> 100 µM
same,TGI,[3],> 100 µM
same,TGI,[4],> 100 µM
same,TGI,[5],> 100 µM
same,TGI,[6],> 100 µM
same,TGI,[7],> 100 µM
same,TGI,[8],> 100 µM
same,TGI,[9],> 100 µM
same,TGI,[10],97 µM
same,TGI,[11],> 100 µM
same,TGI,[12],> 100 µM
same,TGI,[13],> 100 µM
same,TGI,[14],> 100 µM
same,TGI,[15],> 100 µM
same,TGI,[16],> 100 µM
same,TGI,[17],> 100 µM
same,TGI,[18],> 100 µM
same,TGI,[19],> 100 µM
same,TGI,[20],> 100 µM
same,TGI,[21],> 100 µM
same,TGI,[22],> 100 µM
same,TGI,[23],> 100 µM
same,TGI,[24],> 100 µM
same,TGI,[25],> 100 µM
same,TGI,[26],> 100 µM
same,TGI,[27],> 100 µM
same,TGI,[28],> 100 µM
same,TGI,[29],> 100 µM
same,TGI,[30],> 100 µM
same,TGI,[31],> 100 µM
same,TGI,[32],> 100 µM
same,TGI,[33],> 100 µM
same,TGI,[34],> 100 µM
same,TGI,[35],> 100 µM
same,TGI,[36],> 100 µM
same,TGI,[37],> 100 µM
same,TGI,[38],> 100 µM
same,TGI,[39],> 100 µM
same,TGI,[40],> 100 µM
same,TGI,[41],> 100 µM
same,TGI,[42],> 100 µM
same,TGI,[43],> 100 µM
same,TGI,[44],> 100 µM
same,TGI,[45],> 100 µM
same,TGI,[46],> 100 µM
same,TGI,[47],> 100 µM
same,TGI,[48],> 100 µM
same,TGI,[49],> 100 µM
same,TGI,[50],> 100 µM
same,TGI,[51],> 100 µM
same,TGI,[52],> 100 µM
same,TGI,[53],> 100 µM
same,TGI,[54],> 100 µM
same,TGI,[55],> 100 µM
COC(=O)/C=C\[C@H]1[C@H](C)N1S(=O)(=O)c1ccc(C)cc1 (stereo not given in full),TGI,[1],> 100 µM
same,TGI,[2],> 100 µM
same,TGI,[3],> 100 µM
same,TGI,[4],> 100 µM
same,TGI,[5],> 100 µM
same,TGI,[6],> 100 µM
same,TGI,[7],> 100 µM
same,TGI,[8],> 100 µM
same,TGI,[9],> 100 µM
same,TGI,[10],> 100 µM
same,TGI,[11],> 100 µM
same,TGI,[12],> 100 µM
same,TGI,[13],> 100 µM
same,TGI,[56],> 100 µM
same,TGI,[14],> 100 µM
same,TGI,[15],> 100 µM
same,TGI,[16],> 100 µM
same,TGI,[17],> 100 µM
same,TGI,[18],> 100 µM
same,TGI,[19],> 100 µM
same,TGI,[20],> 100 µM
same,TGI,[21],> 100 µM
same,TGI,[22],> 100 µM
same,TGI,[23],> 100 µM
same,TGI,[24],> 100 µM
same,TGI,[25],46 µM
same,TGI,[27],> 100 µM
same,TGI,[28],> 100 µM
same,TGI,[29],> 100 µM
same,TGI,[30],> 100 µM
same,TGI,[31],> 100 µM
same,TGI,[32],> 100 µM
same,TGI,[33],> 100 µM
same,TGI,[57],> 100 µM
same,TGI,[34],> 100 µM
same,TGI,[35],> 100 µM
same,TGI,[36],> 100 µM
same,TGI,[37],> 100 µM
same,TGI,[38],> 100 µM
same,TGI,[39],> 100 µM
same,TGI,[40],> 100 µM
same,TGI,[41],> 100 µM
same,TGI,[42],> 100 µM
same,TGI,[43],> 100 µM
same,TGI,[44],> 100 µM
same,TGI,[45],> 100 µM
same,TGI,[46],> 100 µM
same,TGI,[47],> 100 µM
same,TGI,[48],> 100 µM
same,TGI,[49],> 100 µM
same,TGI,[50],> 100 µM
same,TGI,[51],> 100 µM
same,TGI,[52],> 100 µM
same,TGI,[53],> 100 µM
same,TGI,[54],> 100 µM
same,TGI,[55],> 100 µM
O=C1OC2C=CCC1C2 (stereo not given),TGI,[1],> 100 µM
same,TGI,[2],> 100 µM
same,TGI,[3],> 100 µM
same,TGI,[4],> 100 µM
same,TGI,[5],> 100 µM
same,TGI,[6],> 100 µM
same,TGI,[7],> 100 µM
same,TGI,[8],> 100 µM
same,TGI,[9],> 100 µM
same,TGI,[10],> 100 µM
same,TGI,[12],> 100 µM
same,TGI,[13],> 100 µM
same,TGI,[56],> 100 µM
same,TGI,[14],> 100 µM
same,TGI,[15],> 100 µM
same,TGI,[16],> 100 µM
same,TGI,[17],> 100 µM
same,TGI,[18],> 100 µM
same,TGI,[19],> 100 µM
same,TGI,[20],> 100 µM
same,TGI,[21],> 100 µM
same,TGI,[22],> 100 µM
same,TGI,[23],> 100 µM
same,TGI,[24],> 100 µM
same,TGI,[25],> 100 µM
same,TGI,[26],> 100 µM
same,TGI,[27],> 100 µM
same,TGI,[58],> 100 µM
same,TGI,[28],> 100 µM
same,TGI,[29],> 100 µM
same,TGI,[30],> 100 µM
same,TGI,[31],> 100 µM
same,TGI,[32],> 100 µM
same,TGI,[33],> 100 µM
same,TGI,[57],> 100 µM
same,TGI,[34],> 100 µM
same,TGI,[35],> 100 µM
same,TGI,[36],> 100 µM
same,TGI,[37],> 100 µM
same,TGI,[38],> 100 µM
same,TGI,[39],> 100 µM
same,TGI,[40],> 100 µM
same,TGI,[41],> 100 µM
same,TGI,[42],> 100 µM
same,TGI,[43],> 100 µM
same,TGI,[45],> 100 µM
same,TGI,[46],> 100 µM
same,TGI,[47],> 100 µM
same,TGI,[48],> 100 µM
same,TGI,[49],> 100 µM
same,TGI,[50],> 100 µM
same,TGI,[51],> 100 µM
same,TGI,[52],> 100 µM
same,TGI,[53],> 100 µM
same,TGI,[54],> 100 µM
same,TGI,[55],> 100 µM
C=C(CCOC)CCC1CCCCC/C1=N\N(C)C (stereo not given),TGI,[1],> 100 µM
same,TGI,[2],> 100 µM
same,TGI,[3],> 100 µM
same,TGI,[4],> 100 µM
same,TGI,[5],> 100 µM
same,TGI,[6],> 100 µM
same,TGI,[7],> 100 µM
same,TGI,[8],> 100 µM
same,TGI,[9],> 100 µM
same,TGI,[10],> 100 µM
same,TGI,[11],> 100 µM
same,TGI,[12],> 100 µM
same,TGI,[13],> 100 µM
same,TGI,[56],> 100 µM
same,TGI,[14],> 100 µM
same,TGI,[15],> 100 µM
same,TGI,[16],> 100 µM
same,TGI,[17],> 100 µM
same,TGI,[18],> 100 µM
same,TGI,[19],> 100 µM
same,TGI,[20],> 100 µM
same,TGI,[22],> 100 µM
same,TGI,[23],> 100 µM
same,TGI,[24],> 100 µM
same,TGI,[25],> 100 µM
same,TGI,[26],> 100 µM
same,TGI,[27],> 100 µM
same,TGI,[58],> 100 µM
same,TGI,[28],> 100 µM
same,TGI,[29],> 100 µM
same,TGI,[31],> 100 µM
same,TGI,[32],> 100 µM
same,TGI,[33],> 100 µM
same,TGI,[57],> 100 µM
same,TGI,[34],> 100 µM
same,TGI,[35],> 100 µM
same,TGI,[36],> 100 µM
same,TGI,[37],> 100 µM
same,TGI,[38],> 100 µM
same,TGI,[39],> 100 µM
same,TGI,[40],> 100 µM
same,TGI,[41],> 100 µM
same,TGI,[42],> 100 µM
same,TGI,[43],> 100 µM
same,TGI,[44],> 100 µM
same,TGI,[45],> 100 µM
same,TGI,[46],> 100 µM
same,TGI,[47],> 100 µM
same,TGI,[48],> 100 µM
same,TGI,[49],> 100 µM
same,TGI,[50],> 100 µM
same,TGI,[52],> 100 µM
same,TGI,[53],> 100 µM
same,TGI,[54],> 100 µM
same,TGI,[55],> 100 µM
CC(=O)OCC1OC(Nc2ccc3nc(C)n(-c4ccccc4)c(=O)c3c2)C(OC(C)=O)C(OC(C)=O)C1OC(C)=O (stereo not given),TGI,[1],> 50 µM
same,TGI,[2],> 50 µM
same,TGI,[3],> 50 µM
same,TGI,[4],> 50 µM
same,TGI,[5],> 50 µM
same,TGI,[6],> 50 µM
same,TGI,[7],> 50 µM
same,TGI,[8],> 50 µM
same,TGI,[9],> 50 µM
same,TGI,[10],> 50 µM
same,TGI,[11],> 50 µM
same,TGI,[12],> 50 µM
same,TGI,[13],> 50 µM
same,TGI,[56],> 50 µM
same,TGI,[14],> 50 µM
same,TGI,[16],> 50 µM
same,TGI,[17],> 50 µM
same,TGI,[18],> 50 µM
same,TGI,[19],> 50 µM
same,TGI,[20],> 50 µM
same,TGI,[21],> 50 µM
same,TGI,[22],> 50 µM
same,TGI,[23],> 50 µM
same,TGI,[24],> 50 µM
same,TGI,[25],> 50 µM
same,TGI,[26],> 50 µM
same,TGI,[27],> 50 µM
same,TGI,[58],> 50 µM
same,TGI,[28],> 50 µM
same,TGI,[30],> 50 µM
same,TGI,[32],> 50 µM
same,TGI,[33],> 50 µM
same,TGI,[57],> 50 µM
same,TGI,[34],> 50 µM
same,TGI,[35],> 50 µM
same,TGI,[36],> 50 µM
same,TGI,[37],> 50 µM
same,TGI,[38],> 50 µM
same,TGI,[39],> 50 µM
same,TGI,[40],> 50 µM
same,TGI,[41],> 50 µM
same,TGI,[42],> 50 µM
same,TGI,[43],> 50 µM
same,TGI,[44],> 50 µM
same,TGI,[45],> 50 µM
same,TGI,[46],> 50 µM
same,TGI,[47],> 50 µM
same,TGI,[48],20.4 µM
same,TGI,[49],> 50 µM
same,TGI,[50],> 50 µM
same,TGI,[53],> 50 µM
same,TGI,[54],> 50 µM
same,TGI,[55],> 50 µM

# From PubChem BioAssay (NCI)
